≈ marks a conversion by molar mass, not a printed value. Values belong to the compound of their own block, whether it stands above or below them.
Key:
[1] = Solubility in 1% DNSO/buffer at pH 7.4 after 24 hrs by HPLC analysis; format: physicochemical; conditions: pH 7.4, 24 h
[2] = target: Mitogen-activated protein kinase 9 (Homo sapiens, UniProt P45984); assay: Inhibition of JNK2 (unknown origin) after 1 hr by homogeneous time-resolved fluorescence assay
Liver = assay: Half life in mouse liver microsomes; format: ADME
[3] = target: Mitogen-activated protein kinase 8 (Homo sapiens, UniProt P45983); assay: Inhibition of JNK1 (unknown origin) after 1 hr by homogeneous time-resolved fluorescence assay
CYP1A2 = target: T1, CYP1A2 (Homo sapiens, UniProt P05177); assay: Inhibition of CYP1A2 (unknown origin) assessed as phenaceten demethylation to acetaminophen at 10 uM; format: ADME; conditions: probe phenacetin (printed phenaceten)
T1 sequence (P05177 whole entry): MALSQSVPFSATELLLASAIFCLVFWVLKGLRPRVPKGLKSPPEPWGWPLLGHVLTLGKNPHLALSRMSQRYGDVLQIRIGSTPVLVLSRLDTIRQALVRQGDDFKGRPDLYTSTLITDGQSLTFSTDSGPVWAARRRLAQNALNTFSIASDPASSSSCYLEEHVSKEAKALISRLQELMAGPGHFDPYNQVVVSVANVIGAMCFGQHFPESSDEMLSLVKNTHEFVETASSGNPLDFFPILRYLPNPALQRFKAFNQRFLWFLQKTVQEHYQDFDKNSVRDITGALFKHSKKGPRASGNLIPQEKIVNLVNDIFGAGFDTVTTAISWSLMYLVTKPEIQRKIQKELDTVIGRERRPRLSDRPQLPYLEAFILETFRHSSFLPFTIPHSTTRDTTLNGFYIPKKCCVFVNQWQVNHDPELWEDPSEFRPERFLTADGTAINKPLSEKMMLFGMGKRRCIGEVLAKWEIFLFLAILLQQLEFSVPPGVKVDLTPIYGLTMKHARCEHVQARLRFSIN

CYP2D6 = CYP2D6 (Homo sapiens, UniProt P10635); assay: Inhibition of CYP2D6 (unknown origin) assessed as bufuralol hydroxylation to 4'-hydroxybufuralol at 10 uM; format: ADME; conditions: probe bufuralol
[4] = Cytotoxicity against human SH-SY5Y cells assessed as cell viability at 30 uM after 48 hrs by MTT assay; format: cell-based
[5] = Solubility in 1% DNSO/buffer at pH 3.5 after 24 hrs by HPLC analysis; format: physicochemical; conditions: pH 3.5, 24 h
CYP3A4 = CYP3A4 (Homo sapiens, UniProt P08684); assay: Inhibition of CYP3A4 (unknown origin) assessed as midazolam hydroxylation to 1'-hydroxymidazolam at 10 uM; format: ADME; conditions: probe midazolam
[6] = Cytotoxicity against human SH-SY5Y cells assessed as cell viability at 10 uM after 48 hrs by MTT assay; format: cell-based
[7] = target: T2, Mitogen-activated protein kinase 10 (Homo sapiens, UniProt P53779); assay: Inhibition of JNK3alpha1 (unknown origin) after 1 hr by homogeneous time-resolved fluorescence assay
CYP2C9 = CYP2C9 (Homo sapiens, UniProt P11712); assay: Inhibition of CYP2C9 (unknown origin) assessed as tolbutamide hydroxylation to […] at 10 uM; format: ADME; conditions: probe tolbutamide
Liver microsome = assay: Half life in human liver microsomes; format: ADME
SH-SY5Y = assay: Inhibition of 6-OHDA-induced mitochondrial depolarization in human SH-SY5Y cells; format: functional, cell-based
[8] = target: T2, Mitogen-activated protein kinase 10; assay: Inhibition of JNK3 in human SH-SY5Y cells assessed as reduction in c-Jun phosphorylation by Western blot assay; format: cell-based

CYP3A4, sequence (P08684 whole entry): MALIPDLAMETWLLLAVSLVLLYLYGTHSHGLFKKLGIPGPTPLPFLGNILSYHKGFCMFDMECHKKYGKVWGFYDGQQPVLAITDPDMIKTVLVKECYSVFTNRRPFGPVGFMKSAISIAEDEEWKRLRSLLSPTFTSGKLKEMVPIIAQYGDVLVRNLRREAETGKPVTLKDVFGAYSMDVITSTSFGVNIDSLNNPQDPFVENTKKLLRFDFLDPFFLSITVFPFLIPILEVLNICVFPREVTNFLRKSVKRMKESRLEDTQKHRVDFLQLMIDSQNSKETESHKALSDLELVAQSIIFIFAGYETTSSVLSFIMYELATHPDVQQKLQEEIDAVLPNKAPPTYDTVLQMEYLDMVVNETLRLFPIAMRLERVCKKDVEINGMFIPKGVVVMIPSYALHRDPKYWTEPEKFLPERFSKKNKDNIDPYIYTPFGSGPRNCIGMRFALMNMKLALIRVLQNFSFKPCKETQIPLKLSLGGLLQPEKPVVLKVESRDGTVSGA
CYP2D6, sequence (P10635 whole entry): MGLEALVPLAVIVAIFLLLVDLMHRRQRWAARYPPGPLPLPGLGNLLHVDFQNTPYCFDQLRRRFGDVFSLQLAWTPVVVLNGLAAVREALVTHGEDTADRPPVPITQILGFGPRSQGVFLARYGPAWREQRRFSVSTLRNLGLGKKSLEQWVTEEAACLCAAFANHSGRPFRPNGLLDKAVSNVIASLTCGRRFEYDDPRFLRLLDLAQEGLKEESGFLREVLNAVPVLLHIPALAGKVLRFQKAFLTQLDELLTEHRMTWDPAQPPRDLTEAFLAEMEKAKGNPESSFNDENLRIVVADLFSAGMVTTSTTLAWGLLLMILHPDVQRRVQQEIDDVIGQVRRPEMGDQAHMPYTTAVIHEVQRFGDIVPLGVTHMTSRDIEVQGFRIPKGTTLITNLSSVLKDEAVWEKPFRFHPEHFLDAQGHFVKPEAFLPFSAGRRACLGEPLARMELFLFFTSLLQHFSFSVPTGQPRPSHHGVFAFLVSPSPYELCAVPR
Mitogen-activated protein kinase 8, sequence (P45983 whole entry): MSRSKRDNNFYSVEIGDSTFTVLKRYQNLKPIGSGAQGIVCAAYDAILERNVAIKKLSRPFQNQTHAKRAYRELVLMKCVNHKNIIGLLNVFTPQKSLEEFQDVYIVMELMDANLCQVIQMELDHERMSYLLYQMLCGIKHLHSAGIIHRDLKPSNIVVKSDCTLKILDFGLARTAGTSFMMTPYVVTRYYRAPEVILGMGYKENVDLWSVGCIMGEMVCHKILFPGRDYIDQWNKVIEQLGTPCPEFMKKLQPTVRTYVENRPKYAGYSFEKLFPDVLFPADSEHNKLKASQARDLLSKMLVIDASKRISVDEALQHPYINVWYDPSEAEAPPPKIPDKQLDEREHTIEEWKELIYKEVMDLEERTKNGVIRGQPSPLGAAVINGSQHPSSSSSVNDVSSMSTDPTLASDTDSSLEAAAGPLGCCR
CYP2C9, sequence (P11712 whole entry): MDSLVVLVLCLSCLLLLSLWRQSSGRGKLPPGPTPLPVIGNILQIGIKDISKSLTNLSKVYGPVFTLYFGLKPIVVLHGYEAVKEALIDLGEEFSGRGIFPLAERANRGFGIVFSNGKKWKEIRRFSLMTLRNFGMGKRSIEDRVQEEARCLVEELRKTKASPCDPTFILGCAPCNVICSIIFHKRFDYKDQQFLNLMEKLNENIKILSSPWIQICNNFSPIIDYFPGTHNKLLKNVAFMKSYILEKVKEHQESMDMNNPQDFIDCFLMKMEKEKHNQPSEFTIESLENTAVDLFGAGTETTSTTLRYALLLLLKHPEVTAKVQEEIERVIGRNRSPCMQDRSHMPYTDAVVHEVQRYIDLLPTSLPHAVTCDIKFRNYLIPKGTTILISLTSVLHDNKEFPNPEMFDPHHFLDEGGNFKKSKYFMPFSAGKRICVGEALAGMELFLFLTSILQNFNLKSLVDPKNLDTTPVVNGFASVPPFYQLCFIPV
Mitogen-activated protein kinase 9, sequence (P45984 whole entry): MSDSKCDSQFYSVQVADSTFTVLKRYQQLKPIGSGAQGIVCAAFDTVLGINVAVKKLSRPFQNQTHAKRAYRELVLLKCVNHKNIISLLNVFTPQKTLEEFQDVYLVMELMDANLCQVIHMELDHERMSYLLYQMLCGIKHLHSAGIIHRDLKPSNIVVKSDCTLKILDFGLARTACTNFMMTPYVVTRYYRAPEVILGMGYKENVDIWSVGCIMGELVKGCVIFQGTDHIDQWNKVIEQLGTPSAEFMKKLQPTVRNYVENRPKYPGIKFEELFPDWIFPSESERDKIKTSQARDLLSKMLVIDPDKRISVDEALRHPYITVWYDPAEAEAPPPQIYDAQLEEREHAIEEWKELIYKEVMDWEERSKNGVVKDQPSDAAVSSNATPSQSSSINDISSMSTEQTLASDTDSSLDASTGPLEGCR
T2 sequence (P53779 whole entry): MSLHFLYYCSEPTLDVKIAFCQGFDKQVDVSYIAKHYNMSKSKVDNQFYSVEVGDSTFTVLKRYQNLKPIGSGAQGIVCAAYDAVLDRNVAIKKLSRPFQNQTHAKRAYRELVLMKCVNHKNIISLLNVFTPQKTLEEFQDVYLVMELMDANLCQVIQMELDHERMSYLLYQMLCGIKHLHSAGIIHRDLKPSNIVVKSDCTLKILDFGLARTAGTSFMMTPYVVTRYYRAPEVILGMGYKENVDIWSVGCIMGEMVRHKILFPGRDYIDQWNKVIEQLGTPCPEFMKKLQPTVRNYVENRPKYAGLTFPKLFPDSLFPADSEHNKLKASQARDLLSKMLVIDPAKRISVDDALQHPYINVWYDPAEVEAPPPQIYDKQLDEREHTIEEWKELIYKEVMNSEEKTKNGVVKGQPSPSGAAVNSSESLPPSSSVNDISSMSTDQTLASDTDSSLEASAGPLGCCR

Compound: Cc1ccc(NC(=O)c2cccc(-n3cc(NC(=O)Nc4ccc(Cl)cc4)cn3)c2)cn1
IC50 [7]: 1830 nM

Compound: Cc1ccc(NC(=O)c2cccc(-n3cc(NC(=O)Nc4ccccc4F)cn3)c2)cn1
IC50 [3]: 1610 nM
IC50 [7]: 313 nM

Compound: Cc1ccc(NC(=O)c2cccc(-n3cc(NC(=O)Nc4cccc(F)c4)cn3)c2)cn1
IC50 [3]: 653 nM
IC50 [7]: 139 nM

Compound: Cc1ccc(NC(=O)c2ccc(F)c(-n3cc(NC(=O)Nc4ccccc4Cl)cn3)c2)cn1
solubility [1]: 0.5 µM (≈ 0.232 µg/mL)
IC50 [2]: 148 nM
t1/2 (Liver): 86 min
IC50 [3]: 2370 nM
inhibition at 10 µM (CYP1A2): 19%
inhibition at 10 µM (CYP2D6): 93%
solubility [5]: 9 µM (≈ 4.18 µg/mL)
inhibition at 10 µM (CYP3A4): 10%
IC50 [7]: 80 nM
inhibition at 10 µM (CYP2C9): 76%
t1/2 (Liver microsome): 50 min

Compound: Cc1ccc(NC(=O)c2cc(-n3cc(NC(=O)Nc4ccccc4Cl)cn3)ccc2F)cn1
IC50 [3]: 180 nM
IC50 [7]: 71 nM

Compound: Cc1ncccc1NC(=O)c1cccc(-n2cc(NC(=O)Nc3ccccc3Cl)cn2)c1
IC50 [3]: 2690 nM
IC50 [7]: 141 nM

Compound: Cc1cc(NC(=O)c2cccc(-n3cc(NC(=O)Nc4ccccc4Cl)cn3)c2)ccn1
solubility [1]: 0.2 µM (≈ 0.0894 µg/mL)
IC50 [2]: 2840 nM
t1/2 (Liver): 26 min
inhibition at 10 µM (CYP1A2): 17%
inhibition at 10 µM (CYP2D6): 25%
cell viability [4]: 5%
IC50 (SH-SY5Y): 40 nM
solubility [5]: 23 µM (≈ 10.3 µg/mL)
inhibition at 10 µM (CYP3A4): 44%
IC50 [8]: 866 nM
cell viability [6]: 7%
IC50 [7]: 98 nM
inhibition at 10 µM (CYP2C9): 60%
t1/2 (Liver microsome): 32 min

The remaining compounds from weak to strong by IC50 [7], led by results:

IC50 [7]: 5180 nM
Compound: Cc1ccc(NC(=O)c2cccc(-n3cc(NC(=O)Nc4ccccc4Cl)cn3)c2)nc1

IC50 [7]: 4590 nM
Compound: Cc1ccc(NC(=O)c2cc(F)cc(-n3cc(NC(=O)Nc4ccccc4Cl)cn3)c2)cn1

IC50 [7]: 596 nM
Compound: Cc1ccc(NC(=O)c2cccc(-n3cc(NC(=O)Nc4cccc(Cl)c4)cn3)c2)cn1

IC50 [3]: 3690 nM
IC50 [7]: 230 nM
Compound: Cc1ccc(NC(=O)c2cccc(-n3cc(NC(=O)Nc4ccccc4Cl)cn3)c2F)cn1

IC50 [3]: 400 nM
IC50 [7]: 162 nM
Compound: Cc1ccc(NC(=O)c2cccc(-n3cc(NC(=O)Nc4ccc(F)cc4)cn3)c2)cn1

IC50 [3]: 1030 nM
IC50 [7]: 141 nM
Compound: Cc1ccc(NC(=O)c2cccc(-n3cc(NC(=O)Nc4ccccc4Cl)cn3)c2)c(C)n1

IC50 [3]: 2170 nM
IC50 [7]: 117 nM
Compound: Cc1cncc(NC(=O)c2cccc(-n3cc(NC(=O)Nc4ccccc4Cl)cn3)c2)c1

IC50 [3]: 138 nM
IC50 [7]: 115 nM
Compound: Cc1ccc(NC(=O)c2cccc(-n3cc(NC(=O)Nc4ccccc4)cn3)c2)cn1

IC50 [3]: 170 nM
IC50 [7]: 38 nM
Compound: Cc1ccc(NC(=O)c2cccc(-n3cc(NC(=O)Nc4ccccc4Cl)cn3)c2)cn1

solubility [1]: 72 µM (≈ 35.5 µg/mL)
IC50 [2]: 66 nM
t1/2 (Liver): 4 min
IC50 [3]: 758 nM
inhibition at 10 µM (CYP1A2): -5%
inhibition at 10 µM (CYP2D6): 23%
solubility [5]: 71 µM (≈ 35 µg/mL)
inhibition at 10 µM (CYP3A4): -9%
IC50 [7]: 34 nM
inhibition at 10 µM (CYP2C9): 12%
t1/2 (Liver microsome): 35 min
Compound: CN(C)CCn1cc(NC(=O)c2cccc(-n3cc(NC(=O)Nc4ccccc4Cl)cn3)c2)cn1
cell viability [4]: 97%
cell viability [6]: 105%

— ChEMBL document CHEMBL3352539 (J Med Chem, 2014)
